Measurements as given in the NIST ThermoML archive (doi:10.1021/je800110r).

Conditions: 283.15 K, Liquid, Vibrating tube method

CCCCCCCCCC [decane]
Conditions | mass density [kg/m3]
3625 kPa | 740.1
3634 kPa | 740.1
3651 kPa | 740.3
3666 kPa | 740.1
3675 kPa | 740.1
3689 kPa | 740
3701 kPa | 740.1
3713 kPa | 740.1
3724 kPa | 740.1
3735 kPa | 740.2
3748 kPa | 740.2
3759 kPa | 740
3774 kPa | 740.2
3789 kPa | 740.1
3800 kPa | 740.1
3899 kPa | 740.2
3917 kPa | 740.3
3930 kPa | 740.1
3945 kPa | 740.3
3957 kPa | 740.3
3968 kPa | 740.3
3982 kPa | 740.4
3992 kPa | 740.4
4007 kPa | 740.4
4017 kPa | 740.3
4031 kPa | 740.3
4042 kPa | 740.3
4055 kPa | 740.3
4085 kPa | 740.4
4096 kPa | 740.2
4114 kPa | 740.5
4129 kPa | 740.3
4147 kPa | 740.4
4160 kPa | 740.5
4179 kPa | 740.5
4197 kPa | 740.4
4212 kPa | 740.5
4229 kPa | 740.4
4247 kPa | 740.5
4263 kPa | 740.4
4277 kPa | 740.5
4292 kPa | 740.5
4306 kPa | 740.6
4321 kPa | 740.4
4333 kPa | 740.6
4349 kPa | 740.5
4362 kPa | 740.6
4394 kPa | 740.6
4410 kPa | 740.5
4424 kPa | 740.5
4437 kPa | 740.5
4455 kPa | 740.7
4468 kPa | 740.6
4484 kPa | 740.7
4499 kPa | 740.7
4514 kPa | 740.7
4533 kPa | 740.6
4549 kPa | 740.8
4565 kPa | 740.7
4579 kPa | 740.7
4603 kPa | 740.8
4628 kPa | 740.7
4648 kPa | 740.8
4667 kPa | 740.7
4770 kPa | 740.8
4791 kPa | 740.9
4811 kPa | 740.9
4835 kPa | 740.9
5291 kPa | 741.2
5334 kPa | 741.3
5356 kPa | 741.3
5377 kPa | 741.3
5399 kPa | 741.3
5421 kPa | 741.4
5444 kPa | 741.4
5463 kPa | 741.4
5486 kPa | 741.3
5505 kPa | 741.3
5529 kPa | 741.5
5549 kPa | 741.4
5573 kPa | 741.5
5624 kPa | 741.5
5644 kPa | 741.5
5662 kPa | 741.5
5674 kPa | 741.4
5686 kPa | 741.6
5700 kPa | 741.6
5719 kPa | 741.6
5736 kPa | 741.5
5778 kPa | 741.6
5790 kPa | 741.5
5806 kPa | 741.6
5819 kPa | 741.7
5838 kPa | 741.6
5851 kPa | 741.6
5852 kPa | 741.7
5870 kPa | 741.7
5887 kPa | 741.7
5909 kPa | 741.6
5920 kPa | 741.7
5926 kPa | 741.7
5930 kPa | 741.8
5942 kPa | 741.8
5960 kPa | 741.7
5977 kPa | 741.8
5991 kPa | 741.8
6008 kPa | 741.7
6025 kPa | 741.8
6043 kPa | 741.7
6063 kPa | 741.7
6081 kPa | 741.8
6102 kPa | 741.8
6122 kPa | 741.9
6142 kPa | 741.8
6161 kPa | 741.9
6626 kPa | 742.2
6649 kPa | 742.2
6666 kPa | 742.3
6683 kPa | 742.2
6712 kPa | 742.2
6729 kPa | 742.3
6755 kPa | 742.2
6775 kPa | 742.3
6805 kPa | 742.3
6826 kPa | 742.4
6843 kPa | 742.2
6861 kPa | 742.4
6877 kPa | 742.3
6905 kPa | 742.4
6933 kPa | 742.4
6948 kPa | 742.3
6967 kPa | 742.4
6996 kPa | 742.4
7021 kPa | 742.3
7041 kPa | 742.4
7058 kPa | 742.5
7077 kPa | 742.5
